In article PMC4104309, “Estradiol Binds to Insulin and Insulin Receptor Decreasing Insulin Binding in vitro” (Frontiers in Endocrinology, 2014):
pKd: −log10 of the molar value. “And” between values parts separate entries of the source, which are not always exact repeats. Equal entries are not always repeated. Structures can show the parent of a compound that is named as a salt. Where two headings read alike, the source gives them in different places.

Assays:
[1] = target: recombinant human insulin (Humulin) (Homo sapiens, UniProt P01308); test: UV spectroscopy binding of sex hormones to recombinant human insulin (Humulin); conditions: for Binding to INS (in words): UV spectroscopic studies, discussion summary
recombinant human insulin (Humulin), sequence (P01308 with tags, fused parts or gaps): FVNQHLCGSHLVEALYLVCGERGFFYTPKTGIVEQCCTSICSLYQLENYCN
recombinant human insulin (Humulin), sequence (P01308 with tags, fused parts or gaps): as above

[2] = target: oxidized insulin B chain (Insulin beta chain) (Bos taurus, UniProt P01317); test: UV spectroscopy binding to oxidized insulin B chain; conditions: read-out: Binding constant to individual oxidized INS B chain
oxidized insulin B chain (Insulin beta chain), sequence (P01317 25-54): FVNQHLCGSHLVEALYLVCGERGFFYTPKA
Text: (§1) Additions were made serially.

[3] = target: IR α 392–404 peptide of the human insulin receptor (Homo sapiens, UniProt P06213); test: UV spectroscopy binding to insulin receptor peptide IR α 392–404
[4] = target: IR α 105–118 peptide of the human insulin receptor (Homo sapiens, UniProt P06213); test: UV spectroscopy binding to insulin receptor peptide IR α 105–118
[5] = test system: Human recombinant INS; test: Capillary electrophoresis: E2 in solution with and without insulin; conditions: mean ± SD of the five EI/E ratios (10, 15, 20, 25, 30 kV)
[6] = target: IR β 897–916 peptide of the human insulin receptor (Homo sapiens, UniProt P06213); test: UV spectroscopy binding to insulin receptor peptide IR β 897–916
IR β 897–916 peptide of the human insulin receptor, sequence (P06213 897-916 limits assumed): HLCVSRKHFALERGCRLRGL

[7] = target: IR α 233–248 peptide of the human insulin receptor (Homo sapiens, UniProt P06213); test: UV spectroscopy binding to insulin receptor peptide IR α 233–248
[8] = target: T1, IR α 424–441 peptide of the human insulin receptor (Homo sapiens, UniProt P06213); test: UV spectroscopy binding to insulin receptor peptide IR α 424–441; conditions: for Kd: UV spectroscopy, peptide 100 nM in pH 7.4 phosphate buffer, 30 min room temperature, duplicates averaged
T1 construct: IR α 424–441; made in house; host or cells: chemical peptide synthesis (Michigan State University facility)
Text: Humulin R was obtained from Lilly.

[9] = target: IR α 223–234 peptide of the human insulin receptor (Homo sapiens, UniProt P06213); test: UV spectroscopy binding to insulin receptor peptide IR α 223–234
[10] = target: human INS-like growth factor receptor (IGFR) (Homo sapiens, UniProt P08069); test: UV spectroscopy (serial addition) binding of estradiol to IGFR; conditions: human recombinant IGFR, biphasic
human INS-like growth factor receptor (IGFR), sequence (P08069 with tags, fused parts or gaps): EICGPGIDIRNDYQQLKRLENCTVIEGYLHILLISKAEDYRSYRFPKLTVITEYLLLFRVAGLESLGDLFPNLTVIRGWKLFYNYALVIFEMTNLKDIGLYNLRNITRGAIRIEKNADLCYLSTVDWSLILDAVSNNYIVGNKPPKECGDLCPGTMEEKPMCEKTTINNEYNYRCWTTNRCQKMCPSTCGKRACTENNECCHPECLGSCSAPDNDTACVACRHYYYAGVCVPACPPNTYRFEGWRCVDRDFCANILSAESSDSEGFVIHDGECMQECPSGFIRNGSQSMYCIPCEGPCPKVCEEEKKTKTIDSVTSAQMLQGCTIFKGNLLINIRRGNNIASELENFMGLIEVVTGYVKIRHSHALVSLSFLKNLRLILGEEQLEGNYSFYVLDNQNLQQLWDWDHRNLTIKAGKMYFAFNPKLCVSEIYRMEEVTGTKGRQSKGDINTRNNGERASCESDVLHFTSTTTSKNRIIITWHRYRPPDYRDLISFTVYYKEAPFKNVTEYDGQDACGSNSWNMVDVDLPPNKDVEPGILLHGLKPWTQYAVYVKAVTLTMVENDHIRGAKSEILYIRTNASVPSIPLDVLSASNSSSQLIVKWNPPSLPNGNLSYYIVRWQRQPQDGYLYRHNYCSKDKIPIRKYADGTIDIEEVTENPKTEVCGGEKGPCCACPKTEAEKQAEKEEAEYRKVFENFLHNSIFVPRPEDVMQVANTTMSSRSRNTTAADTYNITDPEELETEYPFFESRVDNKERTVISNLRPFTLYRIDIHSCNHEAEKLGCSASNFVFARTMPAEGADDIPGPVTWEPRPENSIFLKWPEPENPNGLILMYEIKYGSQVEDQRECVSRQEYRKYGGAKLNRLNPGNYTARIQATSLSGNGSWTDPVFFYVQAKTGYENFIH
Experimental: Rat IR membrane preparation (I-9266) (IR) and human INS-like growth factor receptor (IGFR) (I-4657) were obtained from Sigma-Aldrich. The rat IR was a partially purified preparation in residual membrane and contained 250 units of activity as measured by its ability to catalyze the incorporation of 1 pmol per min of phosphate from γ-^32P-ATP into poly(Glu, Tyr), 4:1, at 30°C. The IGFR was recombinant, at least 95% pure by SDS-PAGE, and capable of binding INS-like growth factor. Both receptor preparations, in sum, retained activity.
as §1
This serial addition method was also used to determine the binding of estradiol to IR and IGFR.

[11] = target: IR α 284–300 peptide of the human insulin receptor (Homo sapiens, UniProt P06213); test: UV spectroscopy binding to insulin receptor peptide IR α 284–300
[12] = target: IR α 91–103 peptide of the human insulin receptor (Homo sapiens, UniProt P06213); test: UV spectroscopy binding to insulin receptor peptide IR α 91–103
[13] = test system: insulin receptor (IR) isolated from rat liver; test: Enzyme-linked INS binding assay: effect of E2 on INS–HRP binding to IR
[14] = target: IR α 453–464 peptide of the human insulin receptor (Homo sapiens, UniProt P06213); test: UV spectroscopy binding to insulin receptor peptide IR α 453–464
[15] = Concentration of E2 in E2-saturated buffer with INS–HRP or IR, by capillary electrophoresis; type: physicochemical; conditions: crystals in buffer, at least 48 h room temperature; CE read-out
[16] = test system: INS binding; conditions: 1 mg dose of E2, within 24 h; ref Hilf et al. ([80]); cited from earlier work
[17] = target: oxidized insulin A chain (Insulin alpha chain) (Bos taurus, UniProt P01317); test: UV spectroscopy binding to oxidized insulin A chain
oxidized insulin A chain (Insulin alpha chain), sequence (P01317 85-105): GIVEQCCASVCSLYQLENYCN

[18] = test system: INS binding; conditions: 10^−8 M 17β-estradiol in the culture medium; ref Hilf et al. ([80]); cited from earlier work
[19] = target: Glucagon (Homo sapiens, UniProt P01275); test: UV spectroscopy binding to glucagon (control)
Glucagon, sequence (P01275 53-81): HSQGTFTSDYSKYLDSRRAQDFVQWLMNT

[20] = target: IR α 233–248 (human)
[21] = target: IR α 424–441 (human)
[22] = target: IR α 91–103 (human)
[23] = target: IR α 223–234 (human)
[24] = target: IR α 392–404 (human)
[25] = Binding constant to recombinant human INS, UV spectroscopy

Compound	pKd [1]	pKd [3]	pKd [4]	pKd [6]	pKd [7]	pKd [9]	pKd [11]	pKd [12]	pKd [14]	other results
C[C@]12CC[C@@H]3c4ccc(O)cc4CC[C@H]3[C@@H]1CC[C@H]2O [17α-Estradiol]	5.00									Binding to INS (in words), serial additions ([1]; UV spectroscopy, serial additions, even at 1 μM (Figure 2)): does not bind significantly
C[C@]12CC[C@@H]3c4ccc(O)cc4CC[C@H]3[C@@H]1CC[C@@H]2O [17β-Estradiol (E2), 17β-Estradiol]	7.92	< 3.30	3.55	6.11	< 3.30	< 3.30	6.05	3.92	< 3.30	pKd ([1]; Binding constant (Kd) to INS, high affinity binding, UV spectroscopy): ~7.92 and 7.92; pKd ([1]; read-out: Binding constant to INS, low affinity binding, UV spectroscopy, biphasic binding): 4.19; pKd [2]: 3.82; EI/E ratio, mean ± SD [5]: 3.96 ± 0.45; Kd [8]: > 500 µM; pKd ([10]; read-out: Binding to IGFR, high affinity binding): ~7.00; pKd ([10]; read-out: Kd to IGFR, lower affinity binding): < 5.00; Shift of INS–HRP/IR binding curve to the right ([13]; E2 incubated with either INS–HRP or the IR alone, E2 initially 200 nM, about 22 nM at curve mid-point, duplicates averaged): half; Shift of INS–HRP/IR binding curve to the right ([13]; both the IR and INS–HRP exposed to E2, E2 about 22 nM at curve mid-point): 0.8 log units; Concentration of E2 in E2-saturated phosphate buffer in the presence of INS or IR [15]: ca. 60 ng/ml; Decrease of INS binding in rats [16]: ≤ 50%; Binding to the insulin A chain (in words), serial additions ([17]; UV serial addition, 1000 times the concentration of E2 used in Figure 2 (Figure 3)): no binding was apparent; pKd ([17]; read-out: Binding constant to individual oxidized INS A chain, UV spectroscopy): 3.66; Decrease of INS binding in cell culture [18]: ~ 20%; Binding to glucagon (in words) [19]: does not bind with measurable affinity
C[C@]12CCC(=O)C=C1CC[C@@H]1[C@@H]2CC[C@]2(C)C(=O)CC[C@@H]12 [Andro-stenedione, 4-andro-stenedione]	4.87	< 3.30	< 3.30	< 3.30	< 3.30	< 3.30	< 3.30	< 3.30	< 3.30	pKd [8]: < 3.30
CC(C)CCC[C@@H](C)[C@H]1CC[C@H]2[C@@H]3CC=C4C[C@@H](O)CC[C@]4(C)[C@H]3CC[C@]12C [Cholesterol]	< 3.30	< 3.30	< 3.30	< 3.30	< 3.30	< 3.30	< 3.30	< 3.30	< 3.30	
C[C@]12C[C@H](O)[C@H]3[C@@H](CCC4=CC(=O)CC[C@@]43C)[C@@H]1CC[C@@H]2C(=O)CO [Corticosterone]	4.68									
C[C@]12CC[C@@H]3c4ccc(O)cc4CC[C@H]3[C@@H]1C[C@@H](O)[C@@H]2O [Estriol]	< 3.30	< 3.30	< 3.30	< 3.30	< 3.30	< 3.30	< 3.30	< 3.30	3.41	pKd [1, 25]: < 3.30; Kd [8]: 380 µM
C[C@]12CC[C@@H]3c4ccc(O)cc4CC[C@H]3[C@@H]1CCC2=O [Estrone]	5.90	< 3.30	< 3.30	< 3.30	< 3.30	< 3.30	< 3.30	< 3.30	< 3.30	Kd [8]: > 500 µM
O=c1c(-c2ccc(O)cc2)coc2cc(O)cc(O)c12 [Genistein]	< 3.30									Binding to INS (in words) [1]: negligible binding
C[C@]12CCC(=O)C=C1CC[C@@H]1[C@@H]2[C@@H](O)C[C@@]2(C)[C@H]1CC[C@]2(O)C(=O)CO [Hydrocortisone]	4.20									
CC(=O)[C@H]1CC[C@H]2[C@@H]3CC=C4C[C@@H](O)CC[C@]4(C)[C@H]3CC[C@]12C [Pregnenolone, 5-Pregnen-3β-ol-20-one]										Kd [8]: > 500 µM
CC(=O)[C@H]1CC[C@H]2[C@@H]3CCC4=CC(=O)CC[C@]4(C)[C@H]3CC[C@]12C [Progesterone]	< 3.30	< 3.30	< 3.30	< 3.30	< 3.30	< 3.30	< 3.30	< 3.30	< 3.30	
O=C(c1ccc(OCCN2CCCCC2)cc1)c1c(-c2ccc(O)cc2)sc2cc(O)ccc12 [Raloxifene, Raloxifene HCl]	3.89									pKd [1, 25]: 3.89; Binding to INS (in words) [1]: negligible binding
CC/C(=C(\c1ccccc1)c1ccc(OCCN(C)C)cc1)c1ccccc1 [Tamoxifen, Tamoxifen citrate salt]	< 3.30									Binding to INS (in words) [1]: negligible binding
insulin conjugated to horse-radish peroxidase (ligand)										pKd [20]: 8.10; pKd [21]: < 3.30; pKd [22]: 7.15; pKd [23]: < 3.30; pKd [24]: 6.52
